Measured values as given in patent US20260013501A1, “HERBICIDAL DERIVATIVES” (SYNGENTA CROP PROTECTION AG, priority 2022, published 2026).

What was measured:
Assay type in all cases: in vivo
[1] = tested on: Ipomoea hederacea (IPOHE); assay: Pre-emergence Test (Table B1), IPOHE; details: evaluated after 13 days
Zea mays (ZEAMX) [2] = assay: Pre-emergence Test (Table B1), ZEAMX; details: evaluated after 13 days
[3] = tested on: Echinochloa crus-galli (ECHCG); assay: Pre-emergence Test (Table B1), ECHCG; details: evaluated after 13 days
[4] = tested on: Amaranthus retoflexus (AMARE); assay: Pre-emergence Test (Table B1), AMARE; details: evaluated after 13 days
Setaria faberi (SETFA) [5] = assay: Pre-emergence Test (Table B1), SETFA; details: evaluated after 13 days
Zea mays (ZEAMX) [6] = assay: Post-emergence Test (Table B2), ZEAMX; set-up: key: 5-point damage scale: 5=81-100%, 4=61-80%, 3=41-60%, 2=21-40%, 1=0-20%; details: evaluated after 13 days
Outline: (§1)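 Score: % damage at 13 d on a 5-point scale (5=81-100%; 4=61-80%; 3=41-60%; 2=21-40%; 1=0-20%). Seeds sown in pots, sprayed with test article in acetone/water 50:50 + 0.5% Tween 20; rate in g/ha. Glasshouse 24/16 °C, 14 h light, 65% RH, watered twice daily.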

[7] = tested on: Echinochloa crus-galli (ECHCG); assay: Post-emergence Test (Table B2), ECHCG; set-up: key: 5-point damage scale: 5=81-100%, 4=61-80%, 3=41-60%, 2=21-40%, 1=0-20%; details: evaluated after 13 days
Outline: as §1

Setaria faberi (SETFA) [8] = assay: Post-emergence Test (Table B2), SETFA; set-up: key: five-point scale: 5=81-100%, 4=61-80%, 3=41-60%, 2=21-40%, 1=0-20% damage; details: rate 250 g/Ha, evaluated after 13 days
Experimental: (§2) Seeds of a variety of test species are sown in standard soil in pots (Ipomoea hederacea (IPOHE), Zea mays (ZEAMX), Echinochloa crus-galli (ECHCG), Amaranthus palmeri (AMAPA), (Amaranthus retoflexus (AMARE), and (Setaria faberi (SETFA)). After 8 days cultivation under controlled conditions in a glasshouse (at 24° C./16° C., day/night; 14 hours light; 65% humidity), the plants are sprayed with an aqueous spray solution derived from the formulation of the technical active ingredient in acetone/water (50:50) solution containing 0.5% Tween 20 (polyoxyethelyene sorbitan monolaurate, CAS RN 9005-64-5). Rate of application is shown in g/ha in the tables below. The test plants are then grown in a glasshouse under controlled conditions in a glasshouse (at 24° C./16° C., day/night; 14 hours light; 65% humidity) and watered twice daily. After 13 days the test is evaluated for the percentage damage caused to the plant. The biological activities are shown in the following table on a five-point scale (5=81-100%; 4=61-80%; 3=41-60%; 2=21-40%; 1=0-20%; -=not tested).

[9] = tested on: Ipomoea hederacea (IPOHE); assay: Post-emergence Test (Table B2), IPOHE; set-up: key: five-point scale: 5=81-100%, 4=61-80%, 3=41-60%, 2=21-40%, 1=0-20% damage; details: evaluated after 13 days
Experimental: as §2

[10] = tested on: Amaranthus palmeri (AMAPA); assay: Pre-emergence Test (Table B1), AMAPA; details: evaluated after 13 days
[11] = tested on: Amaranthus retoflexus (AMARE); assay: Post-emergence Test (Table B2), AMARE; set-up: key: five-point scale: 5=81-100%, 4=61-80%, 3=41-60%, 2=21-40%, 1=0-20% damage; details: rate 1000 g/Ha, evaluated after 13 days
Experimental: as §2

[12] = tested on: Amaranthus palmeri (AMAPA); assay: Post-emergence Test (Table B2), AMAPA; set-up: key: five-point scale: 5=81-100%, 4=61-80%, 3=41-60%, 2=21-40%, 1=0-20% damage; details: rate 250 g/Ha, evaluated after 13 days
Outline: as §1

CCn1c(Cc2ccc(Cl)cc2)cc(=O)c(C(=O)O)c1-c1ccc(Cl)c(Cl)c1 [Compound 7, 6-[(4-chlorophenyl)methyl]-2-(3,4-dichlorophenyl)-1-ethyl-4-oxo-pyridine-3-carboxylic acid]
0: Pre-emergence Test, percentage damage caused to the plant (five-point scale), IPOHE ([1]; Rate 1000 g/Ha) | Pre-emergence Test, percentage damage caused to the plant (five-point scale), ZEAMX (Zea mays (ZEAMX) [2]; Rate 1000 g/Ha) | Pre-emergence Test, percentage damage caused to the plant (five-point scale), ECHCG ([3]; Rate 1000 g/Ha) | Pre-emergence Test, percentage damage caused to the plant (five-point scale), AMARE ([4]; Rate 1000 g/Ha) | Pre-emergence Test, percentage damage caused to the plant (five-point scale), SETFA (Setaria faberi (SETFA) [5]; Rate 1000 g/Ha)

CCn1c(Cc2ccccc2C(F)(F)F)cc(=O)c(C(=O)O)c1-c1ccc(Cl)c(Cl)c1 [Compound 11, 2-(3,4-dichlorophenyl)-1-ethyl-4-oxo-6-[[2-(trifluoromethyl)phenyl]methyl]pyridine-3-carboxylic acid]
0: Pre-emergence Test, percentage damage caused to the plant (five-point scale), IPOHE ([1]; Rate 250 g/Ha) | Pre-emergence Test, percentage damage caused to the plant (five-point scale), ECHCG ([3]; Rate 250 g/Ha) | Pre-emergence Test, percentage damage caused to the plant (five-point scale), AMARE ([4]; Rate 250 g/Ha) | Pre-emergence Test, percentage damage caused to the plant (five-point scale), SETFA (Setaria faberi (SETFA) [5]; Rate 250 g/Ha) | percentage damage caused to the plant, ZEAMX (Zea mays (ZEAMX) [6]; rate 250 g/Ha) | percentage damage caused to the plant, ECHCG ([7]; rate 250 g/Ha) | percentage damage caused to the plant, SETFA (Setaria faberi (SETFA) [8])

CCn1c(Cc2ccc(OC)c(OC)c2)cc(=O)c(C(=O)O)c1-c1ccc(Cl)c(Cl)c1 [Compound 34, 2-(3,4-dichlorophenyl)-6-[(3,4-dimethoxyphenyl)meth-yl]-1-ethyl-4-oxo-pyridine-3-carboxylic acid]
0: percentage damage caused to the plant, IPOHE ([9]; rate 1000 g/Ha) | percentage damage caused to the plant, ZEAMX (Zea mays (ZEAMX) [6]; rate 1000 g/Ha) | percentage damage caused to the plant, ECHCG ([7]; rate 1000 g/Ha)

CCn1c(Cc2cccc(OC)c2OC)cc(=O)c(C(=O)O)c1-c1ccc(Cl)c(Cl)c1 [Compound 38, 2-(3,4-dichlorophenyl)-6-[(2,3-dimethoxyphenyl)meth-yl]-1-ethyl-4-oxo-pyridine-3-carboxylic acid]
0: percentage damage caused to the plant, IPOHE ([9]; rate 1000 g/Ha) | percentage damage caused to the plant, ZEAMX (Zea mays (ZEAMX) [6]; rate 1000 g/Ha) | percentage damage caused to the plant, ECHCG ([7]; rate 1000 g/Ha)

CCn1c(Cc2cccc(OC)n2)cc(=O)c(C(=O)O)c1-c1ccc(Cl)c(Cl)c1 [Compound 60, 2-(3,4-dichlorophenyl)-1-ethyl-6-[(6-methoxy-2-pyridyl)methyl]-4-oxo-pyridine-3-carboxylic acid]
0: Pre-emergence Test, percentage damage caused to the plant (five-point scale), ZEAMX (Zea mays (ZEAMX) [2]; Rate 250 g/Ha) | Pre-emergence Test, percentage damage caused to the plant (five-point scale), SETFA (Setaria faberi (SETFA) [5]; Rate 250 g/Ha)

CCn1c(Cc2ccc(Cl)cc2F)cc(=O)c(C(=O)O)c1-c1ccc(Cl)c(Cl)c1 [Compound 79, 6-[(4-chloro-2-fluoro-phenyl)methyl]-2-(3,4-dichlorophenyl)-1-ethyl-4-oxo-pyridine-3-carboxylic acid]
0: Pre-emergence Test, percentage damage caused to the plant (five-point scale), IPOHE ([1]; Rate 1000 g/Ha) | Pre-emergence Test, percentage damage caused to the plant (five-point scale), ZEAMX (Zea mays (ZEAMX) [2]; Rate 1000 g/Ha) | Pre-emergence Test, percentage damage caused to the plant (five-point scale), ECHCG ([3]; Rate 1000 g/Ha) | Pre-emergence Test, percentage damage caused to the plant (five-point scale), AMAPA ([10]; Rate 1000 g/Ha) | Pre-emergence Test, percentage damage caused to the plant (five-point scale), AMARE ([4]; Rate 1000 g/Ha) | Pre-emergence Test, percentage damage caused to the plant (five-point scale), SETFA (Setaria faberi (SETFA) [5]; Rate 1000 g/Ha)

CCn1c(Cc2ccc(O)nn2)cc(=O)c(C(=O)O)c1-c1ccc(Cl)c(Cl)c1 [Compound 107, 2-(3,4-dichlorophenyl)-1-ethyl-6-[(6-hydroxypyridazin-3-yl)methyl]-4-oxo-pyridine-3-carboxylic acid]
0: Pre-emergence Test, percentage damage caused to the plant (five-point scale), IPOHE ([1]; Rate 1000 g/Ha) | Pre-emergence Test, percentage damage caused to the plant (five-point scale), ZEAMX (Zea mays (ZEAMX) [2]; Rate 1000 g/Ha) | Pre-emergence Test, percentage damage caused to the plant (five-point scale), ECHCG ([3]; Rate 1000 g/Ha) | Pre-emergence Test, percentage damage caused to the plant (five-point scale), AMAPA ([10]; Rate 1000 g/Ha) | Pre-emergence Test, percentage damage caused to the plant (five-point scale), AMARE ([4]; Rate 1000 g/Ha) | Pre-emergence Test, percentage damage caused to the plant (five-point scale), SETFA (Setaria faberi (SETFA) [5]; Rate 1000 g/Ha) | percentage damage caused to the plant, IPOHE ([9]; rate 1000 g/Ha) | percentage damage caused to the plant, ZEAMX (Zea mays (ZEAMX) [6]; rate 1000 g/Ha) | percentage damage caused to the plant, ECHCG ([7]; rate 1000 g/Ha) | percentage damage caused to the plant, AMARE [11]

CCn1c(Cc2cccc(Cl)n2)cc(=O)c(C(=O)O)c1-c1ccc(OC(C)C)c(Cl)c1 [Compound 132, 2-(3-chloro-4-isopropoxy-phenyl)-6-[(6-chloro-2-pyridyl)methyl]-1-ethyl-4-oxo-pyridine-3-carboxylic acid]
0: Pre-emergence Test, percentage damage caused to the plant (five-point scale), IPOHE ([1]; Rate 250 g/Ha) | Pre-emergence Test, percentage damage caused to the plant (five-point scale), ZEAMX (Zea mays (ZEAMX) [2]; Rate 250 g/Ha) | Pre-emergence Test, percentage damage caused to the plant (five-point scale), ECHCG ([3]; Rate 250 g/Ha) | Pre-emergence Test, percentage damage caused to the plant (five-point scale), AMARE ([4]; Rate 250 g/Ha) | percentage damage caused to the plant, IPOHE ([9]; rate 250 g/Ha) | percentage damage caused to the plant, AMAPA [12]

CCn1c(Cc2ccc(C)nn2)cc(=O)c(C(=O)O)c1-c1ccc(Cl)c(Cl)c1 [Compound 139, 2-(3,4-dichlorophenyl)-1-ethyl-6-[(6-methylpyridazin-3-yl)methyl]-4-oxo-pyridine-3-carboxylic acid]
0: Pre-emergence Test, percentage damage caused to the plant (five-point scale), SETFA (Setaria faberi (SETFA) [5]; Rate 250 g/Ha) | percentage damage caused to the plant, ZEAMX (Zea mays (ZEAMX) [6]; rate 250 g/Ha) | percentage damage caused to the plant, ECHCG ([7]; rate 250 g/Ha)

CCn1c(Cc2ccn[nH]c2=O)cc(=O)c(C(=O)O)c1-c1ccc(Cl)c(Cl)c1 [Compound 142, 2-(3,4-dichlorophenyl)-1-ethyl-4-oxo-6-[(6-oxo-1H-pyridazin-5-yl)methyl]pyridine-3-carboxylic acid]
0: Pre-emergence Test, percentage damage caused to the plant (five-point scale), ZEAMX (Zea mays (ZEAMX) [2]; Rate 250 g/Ha) | Pre-emergence Test, percentage damage caused to the plant (five-point scale), ECHCG ([3]; Rate 250 g/Ha) | Pre-emergence Test, percentage damage caused to the plant (five-point scale), SETFA (Setaria faberi (SETFA) [5]; Rate 250 g/Ha)

CCn1c(Cc2nccnc2Cl)cc(=O)c(C(=O)O)c1-c1ccc(Cl)c(Cl)c1 [Compound 144, 6-[(3-chloropyrazin-2-yl)methyl]-2-(3,4-dichlorophenyl)-1-ethyl-4-oxo-pyridine-3-carboxylic acid]
0: Pre-emergence Test, percentage damage caused to the plant (five-point scale), IPOHE ([1]; Rate 250 g/Ha) | Pre-emergence Test, percentage damage caused to the plant (five-point scale), ZEAMX (Zea mays (ZEAMX) [2]; Rate 250 g/Ha) | Pre-emergence Test, percentage damage caused to the plant (five-point scale), ECHCG ([3]; Rate 250 g/Ha) | Pre-emergence Test, percentage damage caused to the plant (five-point scale), AMAPA ([10]; Rate 250 g/Ha) | Pre-emergence Test, percentage damage caused to the plant (five-point scale), SETFA (Setaria faberi (SETFA) [5]; Rate 250 g/Ha)

CCn1c(Cc2cnc3ccccc3n2)cc(=O)c(C(=O)O)c1-c1ccc(Cl)c(Cl)c1 [Compound 145, 2-(3,4-dichlorophenyl)-1-ethyl-4-oxo-6-(quinoxalin-2-ylmethyl)pyridine-3-carboxylic acid]
0: Pre-emergence Test, percentage damage caused to the plant (five-point scale), IPOHE ([1]; Rate 250 g/Ha) | Pre-emergence Test, percentage damage caused to the plant (five-point scale), ZEAMX (Zea mays (ZEAMX) [2]; Rate 250 g/Ha) | Pre-emergence Test, percentage damage caused to the plant (five-point scale), AMARE ([4]; Rate 250 g/Ha) | Pre-emergence Test, percentage damage caused to the plant (five-point scale), SETFA (Setaria faberi (SETFA) [5]; Rate 250 g/Ha)
